Experiments:
Type in all cases: cell-based
[1] = test system: DU-145 prostate cancer cells; experiment: CellTiter-Glo luminescent cell viability assay, DU-145
Protocol: In example 1, CELLTITER-GLO was used to test etonogestrel against prostate cancer. DU-145 cells were handled as described above, and a DU-145 96-well cell culture plate was obtained. The complete medium for DU-145 cells was RPMI-1640 (a live product), Cat# A1049101, with a cells/well density of 4000. 2. The drug analyte etonogestrel was prepared and administered (200× final concentration): a) DMSO was used to dilute the analyte etonogestrel to 20 mM for use. 79 μL of the 20 mM analyte prepared in step a) was added to the first well in the first row of the dilution plate, and then 54 μL of DMSO solution was added to the second through ninth wells of the first row. 25 μL of solution was aspirated from the first to the second well, and after mixing well 25 μL of solution was aspirated from the second to the third well, and this was repeated until the 9th well in order to ensure that 3.16 dilution of the medication would be carried out one-by-one. b) 95 μl of cell-specific complete medium was added to the working plate, each medication to 9 wells. […] The final concentrations (μM) of the analyte drug in wells 2-10 in FIG. 1 are, in order: 100, 31.64557, 10.01442, 3.16912, 1.002886, 0.317369, 0.100433, 0.031783, 0.010058; a) Before testing, the DU-145 96-well drug screening plate described in 3 above was stabilized to room temperature for 20-30 minutes. c) 100 μl of CellTiter-Glo reagent (prepared as described in 1 above) was added to all drug screening plates and mixed evenly. d) It was thoroughly oscillated in a 96-well microplate oscillator for 2 minutes to allow the cells to undergo full lysis. e) It was stored away from light at room temperature for 15 minutes before carrying out luminescent signal detection to ensure signal stability. f) An EnSpire multi-function plate reader was used at […] to read the luminescent signals. g) Data was processed and analyzed.

[2] = test system: NCI-H1703 human lung squamous carcinoma cells; experiment: CellTiter-Glo luminescent cell viability assay, NCI-H1703; conditions: 72 hours
[3] = test system: NCI-H2122 human lung cancer cells; experiment: CellTiter-Glo luminescent cell viability assay, NCI-H2122; conditions: 72 hours

C#C[C@]1(O)CC[C@H]2[C@@H]3CCC4=CC(=O)CC[C@@H]4[C@H]3C(=C)C[C@@]21CC [etonogestrel]
inhibitory effect on the proliferation of prostate cancer cells ([1]; DU-145 compared with NCI-H1703 and NCI-H2122): specific inhibitory effect on the proliferation of prostate cancer cells
IC50 ([1]; Homo sapiens, DU-145 cells, 72 hours, CellTiter-Glo): 16 µM
EC50 ([1]; Homo sapiens, DU-145 cells, FIG. 2 dose-response curve, 72 hours): 11.7 µM
IC50 [2]: ≥ 100 µM
IC50 [3]: ≥ 100 µM

Source: patent US10441591B2, “Applications for etonogestrel in preparing anti-prostate cancer products” (SHANGHAI JIAO TONG UNIVERSITY, priority 2015, dated 2019)
